Test results from patent publication US5968933A, “DNA-targeted alkylating agents” (Auckland Division Cancer Society of New Zealand Inc., priority 1994, dated 1999).
Entries after “also recorded” stand apart in the source; their conditions may differ.

Assays:
[1] = test system: S. typhimurium TA102; experiment: Bacterial mutagenicity, plate incorporation assay, TA102; conditions: mean ± SD
[2] = test system: linearized pSV2gpt DNA; experiment: DNA crosslinking assay (agarose gel electrophoresis of linearized plasmid); type: biochemical; conditions: 2 h at 30° C., TE-80 buffer pH 8
Protocol: The ability of representative compounds of the invention to bind to and cross-link DNA was examined. This was carried out by agarose gel electrophoresis of plasmid DNA using linearized pSV2gpt DNA (Tindall, K. R. and Stankowski, L. F.; Mutation Research, 1989 220 241-245) and the method reported by Valu et al, 1990, op.cit. Briefly, linearized pSV2gpt DNA (1 μL of a 1 mg/mL solution) was incubated with drug in TE-80 buffer (10 mM Tris.HCl, 1 mM EDTA at pH 8), shielded from ambient light, for 2 h at 30° C., then denatured by the addition of […] of 1% sodium dodecyl sulfate and 10 μL of 50 mM methylmercury hydroxide and incubated for a further 30 min at 20° C. in the dark. Renaturation of drug-treated DNA samples was carried out by incubation with 2.5 μL of 2-mercaptoethanol for 1 h. Samples were prepared for electrophoresis by the addition of 0.1 mg/mL bromophenol blue, 0.5 μg/mL ethidium bromide and 5 μL of 40% sucrose. Electrophoresis was carried out at 120V in 89 mM tris/borate buffer at pH 8 containing 2 mM EDTA and 0.5 μg/mL ethidium bromide. DNA was visualized using 302 nm trans-illumination, and was photographed using Polaroid type 55 film and a Wratten 3A filter.
After drug treatment, DNA is denatured to the single stranded form, which runs as a lower band in the gels (see lanes 1 and 2 in FIG. 1). Cross-linking by the drugs is evidenced by the appearance of increasing amounts of renatured, double stranded DNA, as shown by the upper band in the gels, corresponding to the band for untreated DNA seen in lane 1.

[3] = test system: Saccharomyces cerevisiae strain D5; conditions: yeast strain D5, in words
[4] = test system: AA8 and UV4 cells; experiment: Hypersensitivity factor (AA8/UV4 IC50 ratio); type: cell-based, Chinese hamster; conditions: ratio of IC50s AA8/UV4
Protocol: (§1) Representative examples of compounds of the invention were tested for biological activity against tumors. Compounds 1 to 6 and 14 to 21, prepared as described above, were tested for their ability to inhibit growth in vitro of cells of the wild-type murine leukaemia cell line P388, and the cell line AA8 which is derived from Chinese hamster ovary cells. For each compound, the IC50, ie. the concentration of compound which inhibited cell growth in treated cultures to 50% of that of controls, was determined, using means of three determinations. In addition, a hypersensitivity factor was determined by comparing activity of the compounds against AA8 cells to activity against UV4. The latter cell line is deficient in aspects of the excision repair pathway for removing DNA adducts, and is hypersensitive to DNA-alkylating agents, especially interstrand crosslinking agents. Previous work has shown that the ratio of IC50 s determined in the wild-type AA8 and mutant UV4 lines (the hypersensitivity factor HF) is a determinant of the mode of cell killing by alkylating agents (Palmer, B. D. et al, J. Med. Chem., 1990 33 112-121; Wilson, W. R. et al, J. Med. Chem., 1989 32 31-38). Compounds with HFs of ca. 1 are unlikely to kill cells via DNA alkylation events. Compounds which show high HF values are likely to form bulky adducts or cross-links,with the latter being especially likely for compounds showing the highest HF values (>ca. 25) (Wilson et al, op. cit.).
(§2) Cell lines were maintained in exponential growth phase by subculturing in RPMI 1640 (P338) or Alpha MEM (AA8, UV4) containing 10% fetal calf serum, as previously described (Palmer et al, op.cit.; Baguley, B. C. and Wilson, W. R., Eur. J. Cancer Clin. Oncol., 1987 23 607-613). IC50 values were determined using log-phase cultures in 96-well microculture plates, and were calculated as the nominal drug concentration required to reduce the cell density to 50% of control values, using 8 control cultures on each microplate. For P388 cultures, drug was present throughout the growth period (72 h), and final cell densities were determined using a minor modification of the MTT method of Mossman (Mossman, T., J. Immunol. Methods, 1983 65 55-63). For AA8 and UV4 cultures, drug exposure was terminated after 18 h by washing three times with fresh medium. Cultures were then grown for a further 72 h before determining cell density by staining with methylene blue (Finlay, G. J. et al, Anal. Biochem., 1984 139 272-277).

[5] = test system: S. typhimurium TA100; experiment: Bacterial mutagenicity, plate incorporation assay, TA100; conditions: for reversion colonies, TA100: mean ± SD; for mutagenicity in TA100: statistical analysis
[6] = test system: P388 cells; experiment: Growth inhibition in vitro, P388 leukaemia; type: cell-based, murine; conditions: for IC50: P388 cells, 72 h, MTT, read-out: IC50
Protocol: as §1, §2

[7] = test system: calf thymus DNA; experiment: Reversible DNA binding by spectrophotometric Scatchard analysis; conditions: 20° C., 0.01M HEPES buffer, pH 7.00
[8] = test system: AA8 cells; experiment: Growth inhibition in vitro, AA8; type: cell-based, Chinese hamster; conditions: for IC50: AA8 cells, 18 h exposure, then 72 h growth, methylene blue, read-out: IC50
Protocol: as §1, §2

[9] = test system: S. typhimurium strains; conditions: overall
[10] = test system: P338 murine leukaemia; type: in vivo, mice; conditions: for % Increase in lifespan: single i.p. dose 24 h after tumour inoculation, at optimal dose (mg/kg: 1 30; 2 30; 3 13.3; 4 3.9; 5 5.9; 6 8.9); for in vivo antitumour activity: P388, single-dose protocol
[11] = test system: calf thymus DNA; experiment: Rate of alkylation of calf thymus DNA by increase in DNA-bound fluorescence; type: biochemical; set-up: unit not given here
[12] = test system: S. typhimurium TA98; experiment: Bacterial mutagenicity, plate incorporation assay, TA98; conditions: mean ± SD
[13] = 40 μg/plate, square brackets: toxicity becoming apparent
[14] = 80 μg/plate, square brackets: toxicity becoming apparent
[15] = 120 μg/plate, square brackets: toxicity becoming apparent
[16] = compound 4 versus compounds 2 and 3

| Structure (SMILES) | reversion colonies, TA102 ([1]; 4 μg/plate) | reversion colonies, TA102 ([1]; 10 μg/plate) | reversion colonies, TA102 ([1]; 20 μg/plate) | reversion colonies, TA102 [1, 13] | reversion colonies, TA102 [1, 14] | Cross-linking [2] | Hypersensitivity factor [4] | reversion colonies, TA100 ([5]; 4 μg/plate) | reversion colonies, TA100 ([5]; 10 μg/plate) | reversion colonies, TA100 ([5]; 20 μg/plate) | reversion colonies, TA100 ([5]; 40 μg/plate) | reversion colonies, TA100 ([5]; 80 μg/plate) | IC50 [6] [nM] | Site size (Number of nucleotide residues) [7] [nucleotide residues] | IC50 [8] [nM] | Optimal dose ([10]; single i.p. dose) [mg/kg] | % Increase in lifespan [10] | Rate constant for alkylation [11] | reversion colonies, TA98 ([12]; 4 μg/plate) | reversion colonies, TA98 ([12]; 10 μg/plate) | also measured |
| --- | --- | --- | --- | --- | --- | --- | --- | --- | --- | --- | --- | --- | --- | --- | --- | --- | --- | --- | --- | --- | --- |
| CN1CCN(c2ccc3nc(-c4ccc5nc(CCCCCCc6ccc(N(CCCl)CCCl)cc6)[nH]c5c4)[nH]c3c2)CC1 [Compound 6, 2-[2-[6-[4-(N,N-bis(2-chloroethyl)amino)phenyl]hexyl]-5-benzimidazolyl]-5-(1-methyl-4-piperazinyl)benzimidazole] | 271 ± 31 | 386 ± 10 | 342 ± 14 | 372 ± 19 | 336 ± 19 | Yes and crosslinked DNA | 20 | 160 ± 13 | 136 ± 0 | 156 ± 29 | 144 ± 10 | 142 ± 10 | 60 | 2.4 | 400 | 8.9 | 23% | 9.64 × 10^4 | 65 ± 10 | 69 ± 7 | reversion colonies, TA102 [1, 15]: 353 ± 34; petite (mitochondrial) mutagenesis [3]: showed activity, albeit weak; reversion colonies, TA100 [5, 15]: 157 ± 14; bacterial mutagenicity [9]: lower bacterial mutagenicity; reversion colonies, TA98 ([12]; 20 μg/plate): 68 ± 8; reversion colonies, TA98 ([12]; 40 μg/plate): 69 ± 9; reversion colonies, TA98 [12, 14]: 96 ± 5; reversion colonies, TA98 [12, 15]: 75 ± 3 |
| CN1CCN(c2ccc3nc(-c4ccc5nc(CCc6ccc(N(CCCl)CCCl)cc6)[nH]c5c4)[nH]c3c2)CC1 [Compound 4, 2-[2-[2-[4-(N,N-bis(2-chloroethyl)amino)phenyl]ethyl]-5-benzimidazolyl]-5-(1-methyl-4-piperazinyl)benzimidazole] | 340 ± 26 | 366 ± 49 | 429 ± 17 | 465 ± 41 | 609 ± 74 | No | 47 | 172 ± 4 | 231 ± 7 | 264 ± 12 | 237 ± 29 | 207 ± 10 | 10 | 2.8 | 330 | 3.9 | 52% | 4.62 × 10^4 | 71 ± 2 | 74 ± 10 | aberrant colonies in yeast [3]: some aberrant colonies; mitotic crossing-over [3]: weak mitotic crossing-over; reversion colonies, TA100 [5, 15]: 232 ± 19; mutagenicity in TA100 [5]: could be considered to show a mutagenic effect in TA100; also recorded: mutagenic ability; increase in cytotoxicity in P388 [6, 16]: 80 fold; increase in cytotoxicity in AA8 [8, 16]: 5 fold; in vivo antitumour activity [10]: retained significant in vivo activity; average number of animals in a group of six which were long-term survivors ([10]; single i.p. dose, optimal dose, group of six): 1 animals; reversion colonies, TA98 ([12]; 20 μg/plate): 75 ± 1; reversion colonies, TA98 ([12]; 40 μg/plate): 65 ± 6 |
| CN1CCN(c2ccc3nc(-c4ccc5nc(CCCc6ccc(N(CCCl)CCCl)cc6)[nH]c5c4)[nH]c3c2)CC1 [Compound 5, 2-[2-[3-[4-(N,N-bis(2-chloroethyl)amino)phenyl]propyl]-5-benzimidazolyl]-5-(1-methyl-4-piperazinyl)benzimidazole] | 342 ± 32 | 392 ± 31 | 368 ± 32 | 327 ± 17 | 480 ± 17 | No | 46 | 188 ± 15 | 180 ± 5 | 205 ± 14 | 240 ± 7 | 258 ± 21 | 20 | 3.0 | 1320 | 5.9 | not active | 6.52 × 10^4 | 63 ± 2 | 62 ± 1 | reversion colonies, TA102 [1, 15]: 607 ± 28; aberrant colonies in yeast [3]: some aberrant colonies; mitotic crossing-over [3]: weak mitotic crossing-over; mutagenicity in TA100 [5]: could be considered to show a mutagenic effect in TA100; also recorded: mutagenic ability; in vivo antitumour activity [10]: inactive in vivo at all doses up to the maximum tolerable dose; reversion colonies, TA98 ([12]; 20 μg/plate): 71 ± 13; reversion colonies, TA98 ([12]; 40 μg/plate): 62 ± 3; reversion colonies, TA98 [12, 14]: 63 ± 9; reversion colonies, TA98 [12, 15]: 71 ± 1 |
